Structures can show the parent of a compound that is named as a salt.
Legend:
lysozyme = molecular target: T1, lysozyme (Gallus gallus, UniProt P00698); experiment: Photochemical labeling of lysozyme with pyridinium salts (General Procedure B, LC/MS); type: biochemical, chicken
T1 construct: Lysozyme (from chicken egg white, >40,000 units/mg of protein); purchased Sigma Aldrich; host or cells: chicken egg white
Method: General Procedure B: Photochemical Irradiation of Peptides and Proteins: To a 2 mL Pyrex LC/MS vial (Thermo model #03-391-39) were sequentially added solutions containing the desired biomolecule, glutathione (GSH), pyridinium salt, and ammonium acetate (NH4OAc). The resulting solution was diluted to a final volume of 500 μL and then sparged using nitrogen for a minimum of 30 minutes prior to irradiation. The actively sparging solution was then placed in an EvoluChem™ PhotoRedOx Box photoreactor that was equipped with a Kessil, PR160 427 nm LED Lamp and was then irradiated (100% lamp intensity) for the designated time at room temperature while maintaining active sparging. The resultant reaction mixture was then analyzed directly by LC/MS. Analysis of labeling outcomes using LC/MS was performed either by extracted ion chromatogram intensities (method A) or by integrating the area under the peaks associated with peptide content (method B). These values were totaled, and estimated percentages were assigned according to relative intensities of peaks or ion counts.
Labeling of Lysozyme with Pyridinium Salt 2a (Lysozyme-2a Conjugate). Labeling of lysozyme (14.3 kDa) with the pyridinium salt 2a was performed by following general procedure B using the following solutions: lysozyme (27 μL, 182 μM, 10 μM final concentration), pyridinium salt 2a (200 μL, 500 μM, 200 μM final concentration), NH4OAc (100 μL, 100 mM, pH=6.9, 20 mM final concentration), glutathione (15 μL, 10 mM, 300 μM final concentration), and water (158 μL) with a 100% intensity irradiation time of 60 minutes. The reaction mixture was analyzed directly by LC/MS using method A and was estimated to have proceeded in >95% conversion and a 10.9:1 mono:di labeled ratio and 10% glutathionylation of all unlabeled and labeled protein content was observed.
Labeling of Lysozyme with Pyridinium Salt 2b (Lysozyme-2b Conjugate). Labeling of lysozyme (14.3 kDa) with the pyridinium salt 2b was performed by following general procedure Busing the following solutions: lysozyme (19 μL, 262 μM, […]), 2b (181 μL, 554 μM, 200 μM final concentration), NH4OAc (50 μL, 200 mM, pH=6.9, 20 mM final concentration), glutathione (50 μL, 3 mM, 300 μM final concentration), and water (200 μL) with a 100% intensity irradiation time of 10 minutes. The reaction mixture was analyzed directly by LC/MS using method A and was estimated to have proceeded with 83% conversion. […]
Labeling of Lysozyme with Pyridinium Salt 2c (Lysozyme-2c Conjugate). […] The reaction mixture was analyzed directly by LC/MS using method A and was estimated to have proceeded with 85% conversion and a 3.7:1 mono:di labeled ratio and 10% glutathionylation of all protein content was observed. […]

[1] = Fluorescence lifetime and emission measurements; type: physicochemical; conditions: 10 μM in H2O, 375 nm excitation
Method: The emission spectra were generated by excitation of a 10 μM solution of either pyridinium salt 2a or pyridinium salt 2b in H2O. Analyses were performed at 375 nm excitation with an emission slit width of 5 nm and an excitation slit width of 5 nm. The emission wavelength was gathered from 400 nm to 600 nm.
FIGS. 9A-9D show fluorescence decay spectra of pyridinium salts 2a and 2b in selected solvents according to at least one embodiment of the present disclosure. Specifically, FIG. 9A is a fluorescence decay spectrum of pyridinium salt 2a in 1,2-dichloroethane, FIG. 9B is a fluorescence decay spectrum of pyridinium salt 2a in CH3CN, FIG. 9C is a fluorescence decay spectrum of pyridinium salt 2a in H2O, and FIG. 9D is a fluorescence decay spectrum of pyridinium salt 2b in H2O. The fluorescent decay spectra were generated with a 1-10 μM solution of pyridinium salt (10 μM for H2O and 1 μM for other solvents) using a GG420 long pass filter and a 375 nm excitation wavelength. The instrument response factor was measured using a highly diluted solution of LUDOX AS-30 colloidal silica in water and a ND1.0 filter. The concentration of LUDOX and the emission slit width were adjusted until the intensity of the instrument response function (IRF) was similar to the fluorescent decay intensity. The procedure given in the EasyLife X User's Manual was followed.

T1 sequence (P00698 19-147): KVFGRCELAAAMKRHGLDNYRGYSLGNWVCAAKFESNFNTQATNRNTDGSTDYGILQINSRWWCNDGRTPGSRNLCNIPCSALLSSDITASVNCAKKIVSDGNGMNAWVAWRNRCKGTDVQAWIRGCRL

Row | Compound | labeling rate compared to pyridinium salt 2a (lysozyme; lysozyme labeling) | relative fluorescence quantum yield ΦF1 of pyridinium salt 2b: pyridinium salt 2a [1] | Modified Trp (lysozyme; trypsin digest, MS-MS)
1 | COc1ccc2cc(-c3cc(C)[n+](N(C)C(=O)OCCCCC[C@H]4SC[C@H]5NC(=O)N[C@H]54)c(C)c3)ccc2c1 (stereo in doubt) [pyridinium salt 2b, 4-(6-methoxynaphthalen-2-yl)-2,6-dimethyl-1-(methyl(((5-((3aR,4R,6aS)-2-oxohexahydro-1H-thieno[3,4-d]imidazol-4-yl)pentyl)oxy)carbonyl)amino)pyridin-1-ium tetrafluoroborate] | much faster rate | 3.3 | –
2 | COC(=O)N(C)[n+]1c(C)cc(-c2ccc3cc(OC)ccc3c2)cc1C [pyridinium salt 2a, 1-((methoxycarbonyl)(methyl)amino)-4-(6-methoxynapthalen-2-yl)-2,6-dimethylpyridin-1-ium tetrafluoroborate] | – | – | Trp-62

— US20240262845A1, “PYRIDINIUM SALTS, METHODS OF MAKING, AND METHODS OF USE” (UNIVERSITY OF WYOMING, priority 2023, published 2024)
